In US20240180880A1, “METHODS OF USING EHMT2 INHIBITORS IN TREATING OR PREVENTING BLOOD DISORDERS” (Epizyme, Inc., priority 2017, published 2024):
Like-named read-outs stand apart in the source and are kept apart here.

Tested on: 284 cell lines
Experiment: cells
Protocol: A screen of 284 cell lines to assess the antiproliferative effect of EHMT2 inhibition was conducted by treating cell lines in 384-well format with a half-log step dilutions of Compound 205 over 10 concentrations with a maximum concentration of 0.1% v/v DMSO. Cells were plated on Day 0 and treated with compound on Day 1. Culture medium was replaced on day 7 and cells redosed. After 10-day incubation, cells were fixed and stained with nuclear dye. Automated fluorescence microscopy was carried out using a Molecular Devices ImageXpress Micro XL high-content imager, and images were collected with a 4× objective. 16-bit TIFF images were acquired and analyzed with MetaXpress 5.1.0.41 software. Cell proliferation was measured by the fluorescence intensity of the incorporated nuclear dye. Cell count IC50 is the test compound concentration at 50% of maximal response of the untreated control.

Measured: IC50

CNc1cc(C)nc(Nc2ccc(OC)c(OCCCN3CCCC3)c2)n1 [Compound 205]
0.1 to 1 µM: Homo sapiens, TCC-SUP, read-out: Cell Count IC50, TCCSUP, Bladder | Homo sapiens, U-118-MG, read-out: Cell Count IC50, U-118 MG, Central Nervous System, Glioma | Homo sapiens, WM 266-4, read-out: Cell Count IC50, WM-266-4, Skin, Melanoma | OCUG-1, read-out: Cell Count IC50, OCUG-1, Liver | read-out: Cell Count IC50, BC-1, Hematopoietic, Lymphoma | read-out: Cell Count IC50, HOS, Bone, Osteosarcoma | read-out: Cell Count IC50, MT-3, Colon | read-out: Cell Count IC50, TE 125.T, Soft & Connective Tissue, Sarcoma
0.01 to 0.1 µM: read-out: Cell Count IC50, DB, Hematopoietic, Lymphoma | read-out: Cell Count IC50, Hs 729, Soft & Connective Tissue, Sarcoma
> 10 µM: Homo sapiens, T98G, read-out: Cell Count IC50, T98G, Central Nervous System, Glioma | Homo sapiens, YAPC, read-out: Cell Count IC50, YAPC, Pancreas | Homo sapiens, ZR-75-1, read-out: Cell Count IC50, ZR-75-1, Breast | Hs766T, read-out: Cell Count IC50, Hs 766T, Pancreas | KPL-1, read-out: Cell Count IC50, KPL-1, Breast | read-out: Cell Count IC50, 5637, Bladder | read-out: Cell Count IC50, A7, Skin, Melanoma | read-out: Cell Count IC50, EB-3, Hematopoietic, Lymphoma | read-out: Cell Count IC50, H4, Central Nervous System, Glioma | read-out: Cell Count IC50, HLE, Liver | read-out: Cell Count IC50, HT-3, Female GU, Cervix | read-out: Cell Count IC50, Hs 229.T, Lung, NSCLC | read-out: Cell Count IC50, Hs 852.T, Skin, Melanoma | read-out: Cell Count IC50, Hs 888.Sk, Bone, Osteosarcoma | read-out: Cell Count IC50, Hs 934.T, Skin, Melanoma | read-out: Cell Count IC50, IM-9, Hematopoietic, Myeloma | read-out: Cell Count IC50, JAR, Placenta | read-out: Cell Count IC50, KLE, Female GU, Uterus | read-out: Cell Count IC50, MX1, Hematopoietic, Leukemia | read-out: Cell Count IC50, PC-3, Prostate | read-out: Cell Count IC50, T24, Bladder | read-out: Cell Count IC50, VA-ES-BJ, Soft & Connective Tissue, Sarcoma | read-out: Cell Count IC50, Y79, Eve, Eye
1 to 10 µM: Homo sapiens, THP-1, read-out: Cell Count IC50, Thp 1, Hematopoietic, Leukemia | Homo sapiens, U2OS, read-out: Cell Count IC50, U2OS, Bone, Osteosarcoma | Homo sapiens, U138-MG, read-out: Cell Count IC50, U-138MG, Central Nervous System, Glioma | Homo sapiens, U-87 MG, read-out: Cell Count IC50, U-87 MG, Central Nervous System, Glioma | Homo sapiens, UMUC3, read-out: Cell Count IC50, UM-UC-3, Bladder | Homo sapiens, WiDr, read-out: Cell Count IC50, WiDr, Colon | Hs 445, read-out: Cell Count IC50, Hs 445, Hematopoietic, Lymphoma | KHOS-240S, read-out: Cell Count IC50, KHOS-240S, Bone, Osteosarcoma | MS751, read-out: Cell Count IC50, MS751, Female GU, Cervix | OE21, read-out: Cell Count IC50, OE21, Head and Neck | RKOAS451, read-out: Cell Count IC50, RKO-AS45-1, Colon | SKO-007, read-out: Cell Count IC50, SKO-007, Hematopoietic, Myeloma | TE 381.T, read-out: Cell Count IC50, TE 381.T, Soft & Connective Tissue, Sarcoma | read-out: Cell Count IC50, A388, Skin, Head and Neck | read-out: Cell Count IC50, AGS, Stomach | read-out: Cell Count IC50, AUS65, Breast | read-out: Cell Count IC50, C32, Skin, Melanoma | read-out: Cell Count IC50, DK-MG, Central Nervous System, Glioma | read-out: Cell Count IC50, EB2, Hematopoietic, Lymphoma | read-out: Cell Count IC50, EM-2, Hematopoietic, Leukemia | read-out: Cell Count IC50, HLF, Liver | read-out: Cell Count IC50, HT, Hematopoietic, Lymphoma | read-out: Cell Count IC50, Hs 611.T, Hematopoietic, Lymphoma | read-out: Cell Count IC50, Hs 688(A).T, Skin, Melanoma | read-out: Cell Count IC50, Hs 821.T, Soft & Connective Tissue, Sarcoma | read-out: Cell Count IC50, Hs 936.T(C1), Skin, Melanoma | read-out: Cell Count IC50, J82, Bladder | read-out: Cell Count IC50, NAMALWA, Hematopoietic, Lymphoma | read-out: Cell Count IC50, PA-1, Female GU, Ovary | read-out: Cell Count IC50, RD, Soft & Connective Tissue, Sarcoma | read-out: Cell Count IC50, RKO, Colon | read-out: Cell Count IC50, SH-4, Skin, Melanoma | read-out: Cell Count IC50, SK-PN-DW, Soft & Connective Tissue, Sarcoma | read-out: Cell Count IC50, SR, Hematopoietic, Lymphoma | read-out: Cell Count IC50, TF-1, Hematopoietic, Leukemia | read-out: Cell Count IC50, TT, Endocrine, Thyroid | read-out: Cell Count IC50, TUR, Hematopoietic, Lymphoma | read-out: Cell Count IC50, U266B1, Hematopoietic, Myeloma
